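48-hour exposure; five concentrations; linearly interpolated endpoints. GI50 marks 50% less growth. TGI is the concentration that stops growth completely.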
Key:
Experiment in all cases: DTP human tumour cell line panel, 48 h
786-0 renal = tested on: 786-0 renal
A498 renal = tested on: A498 renal
A549 NSCLC = tested on: A549 NSCLC
ACHN renal = tested on: ACHN renal
BT-549 breast = tested on: BT-549 breast
CAKI-1 renal = tested on: CAKI-1 renal
CCRF-CEM leukemia = tested on: CCRF-CEM leukemia
COLO 205 colon = tested on: COLO 205 colon
DU-145 prostate = tested on: DU-145 prostate
EKVX NSCLC = tested on: EKVX NSCLC
HCC-2998 colon = tested on: HCC-2998 colon
HCT-116 colon = tested on: HCT-116 colon
HCT-15 colon = tested on: HCT-15 colon
HL-60(TB) leukemia = tested on: HL-60(TB) leukemia
HOP-62 NSCLC = tested on: HOP-62 NSCLC
HOP-92 NSCLC = tested on: HOP-92 NSCLC
HS 578T breast = tested on: HS 578T breast
HT29 colon = tested on: HT29 colon
IGROV1 ovarian = tested on: IGROV1 ovarian
K-562 leukemia = tested on: K-562 leukemia
KM12 colon = tested on: KM12 colon
LOX IMVI melanoma = tested on: LOX IMVI melanoma
M14 melanoma = tested on: M14 melanoma
MALME-3M melanoma = tested on: MALME-3M melanoma
MCF7 breast = tested on: MCF7 breast
MDA-MB-231 breast = tested on: MDA-MB-231 breast
MDA-MB-435 = tested on: MDA-MB-435
MOLT-4 leukemia = tested on: MOLT-4 leukemia
NCI-H226 lung = tested on: NCI-H226 lung
NCI-H23 lung = tested on: NCI-H23 lung
NCI-H460 lung = tested on: NCI-H460 lung
NCI-H522 lung = tested on: NCI-H522 lung
NCI/ADR-RES ovarian = tested on: NCI/ADR-RES ovarian
OVCAR-3 ovarian = tested on: OVCAR-3 ovarian
OVCAR-4 ovarian = tested on: OVCAR-4 ovarian
OVCAR-5 ovarian = tested on: OVCAR-5 ovarian
OVCAR-8 ovarian = tested on: OVCAR-8 ovarian
PC-3 prostate = tested on: PC-3 prostate
RPMI-8226 leukemia = tested on: RPMI-8226 leukemia
RXF 393 renal = tested on: RXF 393 renal
SF-268 CNS = tested on: SF-268 CNS
SF-295 CNS = tested on: SF-295 CNS
SF-539 CNS = tested on: SF-539 CNS
SK-MEL-28 melanoma = tested on: SK-MEL-28 melanoma
SK-MEL-5 melanoma = tested on: SK-MEL-5 melanoma
SK-OV-3 ovarian = tested on: SK-OV-3 ovarian
SN12C renal = tested on: SN12C renal
SNB-19 CNS = tested on: SNB-19 CNS
SNB-75 CNS = tested on: SNB-75 CNS
SR leukemia = tested on: SR leukemia
SW-620 colon = tested on: SW-620 colon
T-47D breast = tested on: T-47D breast
TK-10 renal = tested on: TK-10 renal
U251 CNS = tested on: U251 CNS
UACC-257 melanoma = tested on: UACC-257 melanoma
UACC-62 melanoma = tested on: UACC-62 melanoma
UO-31 renal = tested on: UO-31 renal

Question: Which GI50 (786-0 renal) does the source give for `COc1ccc(-c2onc(N)c2-c2cc(OC)c3c(c2)OCO3)cc1` here?
Answer: 7.24 µM

Question: What about the TGI (786-0 renal) of the same compound?
Answer: > 100 µM

Question: And the GI50 (A498 renal)?
Answer: 1.5 µM

Question: What about the TGI (A498 renal) of the same compound?
Answer: 10.9 µM

Question: And the GI50 (A549 NSCLC)?
Answer: 2.95 µM

Question: What about the TGI (A549 NSCLC) of the same compound?
Answer: > 100 µM

Question: And the GI50 (ACHN renal)?
Answer: 6.39 µM

Question: What about the TGI (ACHN renal) of the same compound?
Answer: > 100 µM

Question: And the GI50 (BT-549 breast)?
Answer: 2.64 µM

Question: What about the TGI (BT-549 breast) of the same compound?
Answer: > 100 µM

Question: What about the GI50 (CAKI-1 renal) of the same compound?
Answer: 3.58 µM

Question: And the TGI (CAKI-1 renal)?
Answer: > 100 µM

Question: What about the GI50 (CCRF-CEM leukemia) of the same compound?
Answer: 1.81 µM

Question: And the TGI (CCRF-CEM leukemia)?
Answer: > 88.6 µM

Question: What about the GI50 (COLO 205 colon) of the same compound?
Answer: 2.2 µM

Question: What about the TGI (COLO 205 colon) of the same compound?
Answer: 6.86 µM

Question: And the GI50 (DU-145 prostate)?
Answer: 3.57 µM

Question: And the TGI (DU-145 prostate)?
Answer: > 59.3 µM

Question: And the GI50 (EKVX NSCLC)?
Answer: 6.58 µM

Question: And the TGI (EKVX NSCLC)?
Answer: > 100 µM

Question: And the GI50 (HCC-2998 colon)?
Answer: 3.7 µM

Question: And the TGI (HCC-2998 colon)?
Answer: > 87.7 µM

Question: What about the GI50 (HCT-116 colon) of the same compound?
Answer: 2.32 µM

Question: What about the TGI (HCT-116 colon) of the same compound?
Answer: 50 µM

Question: And the GI50 (HCT-15 colon)?
Answer: 0.958 µM

Question: What about the TGI (HCT-15 colon) of the same compound?
Answer: > 100 µM

Question: What about the GI50 (HL-60(TB) leukemia) of the same compound?
Answer: 1.87 µM

Question: What about the TGI (HL-60(TB) leukemia) of the same compound?
Answer: 7.53 µM

Question: And the GI50 (HOP-62 NSCLC)?
Answer: 4.53 µM

Question: And the TGI (HOP-62 NSCLC)?
Answer: > 100 µM

Question: What about the GI50 (HOP-92 NSCLC) of the same compound?
Answer: 4.98 µM

Question: What about the TGI (HOP-92 NSCLC) of the same compound?
Answer: > 100 µM

Question: And the GI50 (HS 578T breast)?
Answer: 2.65 µM

Question: And the TGI (HS 578T breast)?
Answer: > 100 µM

Question: What about the GI50 (HT29 colon) of the same compound?
Answer: 1.65 µM

Question: And the TGI (HT29 colon)?
Answer: 11.9 µM

Question: And the GI50 (IGROV1 ovarian)?
Answer: 8.44 µM

Question: And the TGI (IGROV1 ovarian)?
Answer: > 100 µM

Question: What about the GI50 (K-562 leukemia) of the same compound?
Answer: 0.473 µM

Question: And the TGI (K-562 leukemia)?
Answer: > 100 µM

Question: What about the GI50 (KM12 colon) of the same compound?
Answer: 1.85 µM

Question: What about the TGI (KM12 colon) of the same compound?
Answer: > 75.4 µM

Question: And the GI50 (LOX IMVI melanoma)?
Answer: 3.68 µM

Question: And the TGI (LOX IMVI melanoma)?
Answer: > 100 µM

Question: What about the GI50 (M14 melanoma) of the same compound?
Answer: 1.49 µM

Question: And the TGI (M14 melanoma)?
Answer: 7.28 µM

Question: And the GI50 (MALME-3M melanoma)?
Answer: 6.1 µM

Question: What about the TGI (MALME-3M melanoma) of the same compound?
Answer: > 100 µM

Question: And the GI50 (MCF7 breast)?
Answer: 0.932 µM

Question: And the TGI (MCF7 breast)?
Answer: > 100 µM

Question: What about the GI50 (MDA-MB-231 breast) of the same compound?
Answer: 3.4 µM

Question: And the TGI (MDA-MB-231 breast)?
Answer: 65.8 µM

Question: What about the GI50 (MDA-MB-435) of the same compound?
Answer: 0.29 µM

Question: And the TGI (MDA-MB-435)?
Answer: 1.13 µM

Question: And the GI50 (MOLT-4 leukemia)?
Answer: 1.93 µM

Question: And the TGI (MOLT-4 leukemia)?
Answer: > 65.5 µM

Question: What about the GI50 (NCI-H226 lung) of the same compound?
Answer: 14.2 µM

Question: What about the TGI (NCI-H226 lung) of the same compound?
Answer: > 100 µM

Question: What about the GI50 (NCI-H23 lung) of the same compound?
Answer: 2.87 µM

Question: What about the TGI (NCI-H23 lung) of the same compound?
Answer: > 100 µM

Question: And the GI50 (NCI-H460 lung)?
Answer: 3 µM

Question: And the TGI (NCI-H460 lung)?
Answer: 21.1 µM

Question: And the GI50 (NCI-H522 lung)?
Answer: 1.07 µM

Question: And the TGI (NCI-H522 lung)?
Answer: 5.39 µM

Question: And the GI50 (NCI/ADR-RES ovarian)?
Answer: 0.947 µM

Question: What about the TGI (NCI/ADR-RES ovarian) of the same compound?
Answer: > 21.8 µM

Question: What about the GI50 (OVCAR-3 ovarian) of the same compound?
Answer: 2.08 µM

Question: And the TGI (OVCAR-3 ovarian)?
Answer: 7.08 µM

Question: What about the GI50 (OVCAR-4 ovarian) of the same compound?
Answer: 13.6 µM

Question: What about the TGI (OVCAR-4 ovarian) of the same compound?
Answer: > 96 µM

Question: And the GI50 (OVCAR-5 ovarian)?
Answer: 6.74 µM

Question: What about the TGI (OVCAR-5 ovarian) of the same compound?
Answer: > 94 µM

Question: And the GI50 (OVCAR-8 ovarian)?
Answer: 4.22 µM

Question: What about the TGI (OVCAR-8 ovarian) of the same compound?
Answer: > 100 µM

Question: What about the GI50 (PC-3 prostate) of the same compound?
Answer: 4.69 µM

Question: What about the TGI (PC-3 prostate) of the same compound?
Answer: > 100 µM

Question: And the GI50 (RPMI-8226 leukemia)?
Answer: 3.51 µM

Question: And the TGI (RPMI-8226 leukemia)?
Answer: > 86 µM

Question: What about the GI50 (RXF 393 renal) of the same compound?
Answer: 2.71 µM

Question: What about the TGI (RXF 393 renal) of the same compound?
Answer: 19 µM

Question: And the GI50 (SF-268 CNS)?
Answer: 8.58 µM

Question: And the TGI (SF-268 CNS)?
Answer: > 100 µM

Question: What about the GI50 (SF-295 CNS) of the same compound?
Answer: 2.32 µM

Question: What about the TGI (SF-295 CNS) of the same compound?
Answer: > 100 µM

Question: What about the GI50 (SF-539 CNS) of the same compound?
Answer: 2.74 µM

Question: And the TGI (SF-539 CNS)?
Answer: 11.8 µM

Question: What about the GI50 (SK-MEL-28 melanoma) of the same compound?
Answer: 3.84 µM

Question: And the TGI (SK-MEL-28 melanoma)?
Answer: > 100 µM

Question: What about the GI50 (SK-MEL-5 melanoma) of the same compound?
Answer: 2.8 µM

Question: What about the TGI (SK-MEL-5 melanoma) of the same compound?
Answer: > 25.6 µM

Question: And the GI50 (SK-OV-3 ovarian)?
Answer: 3.79 µM

Question: And the TGI (SK-OV-3 ovarian)?
Answer: 22.6 µM

Question: And the GI50 (SN12C renal)?
Answer: 4.26 µM

Question: And the TGI (SN12C renal)?
Answer: > 100 µM

Question: What about the GI50 (SNB-19 CNS) of the same compound?
Answer: 8.24 µM

Question: What about the TGI (SNB-19 CNS) of the same compound?
Answer: > 100 µM

Question: What about the GI50 (SNB-75 CNS) of the same compound?
Answer: 1.75 µM

Question: What about the TGI (SNB-75 CNS) of the same compound?
Answer: 7.32 µM

Question: And the GI50 (SR leukemia)?
Answer: 0.534 µM

Question: What about the TGI (SR leukemia) of the same compound?
Answer: > 100 µM

Question: And the GI50 (SW-620 colon)?
Answer: 0.598 µM

Question: And the TGI (SW-620 colon)?
Answer: > 100 µM

Question: And the GI50 (T-47D breast)?
Answer: 4.65 µM

Question: What about the TGI (T-47D breast) of the same compound?
Answer: > 100 µM

Question: What about the GI50 (TK-10 renal) of the same compound?
Answer: 8.49 µM

Question: And the TGI (TK-10 renal)?
Answer: > 100 µM

Question: And the GI50 (U251 CNS)?
Answer: 2.79 µM

Question: And the TGI (U251 CNS)?
Answer: > 26.1 µM

Question: What about the GI50 (UACC-257 melanoma) of the same compound?
Answer: 3.43 µM

Question: What about the TGI (UACC-257 melanoma) of the same compound?
Answer: > 100 µM

Question: And the GI50 (UACC-62 melanoma)?
Answer: 1.96 µM

Question: And the TGI (UACC-62 melanoma)?
Answer: > 46.9 µM

Question: And the GI50 (UO-31 renal)?
Answer: 10.5 µM

Question: What about the TGI (UO-31 renal) of the same compound?
Answer: > 100 µM

Source: PubChem BioAssay (NCI)
